# Assay results reported in publication PMC6479694, “Studies on the Interaction between Poly-Phosphane Gold(I) Complexes and Dihydrofolate Reductase: An Interplay with Nicotinamide Adenine Dinucleotide Cofactor” (International Journal of Molecular Sciences, 2019).
# “And” between values parts separate entries of the source, which are not always exact repeats. Equal values may be shown once. Read-outs that look alike come from different tables or passages of the source.
# Columns and labels:
# DHFR from E. coli [1] = molecular target: T1, DHFR from E. coli (Escherichia coli, UniProt P0ABQ4); experiment: Fluorimetric binding assay, quenching of DHFR tryptophan emission (λexc = 280 nm); settings: for TΔS°: from van't Hoff analysis; for ΔG°: standard free energy equation from ΔH° and TΔS°; for ΔH° / ΔS°: van't Hoff equation from Kd at 25, 10 and −4 °C
# T1 construct: made in house
# Protocol: The Hepes/methanol solutions of the gold(I) compounds were used for the fluorimetric assays (see materials and methods section) regarding DHFR from E. coli. The emission’s maximum of DHFR was detected at 344 nm upon excitation at 280 nm; by adding additional amounts of the gold complex in Hepes/methanol solutions (ranging among 4 ÷ 50 µM), the quenching of this emission intensity was observed. In Figure 3, spectra showing the effect of ^4L3AuCl on DHFR emission are reported. It is possible to observe the quenching of the Tryptophan’s emission and the corresponding increase of the intrinsic phosphorescence of the gold compound.
# (§1) The fluorimetric analysis was performed using a 1 mL quartz cuvette and a Perkin–Elmer Fluorescence Spectrometer LS 55. For all the analysis we used 5–12 µM solutions of DHFR and increasing concentrations of gold(I) compounds in the 4–60 µM range. For some experiments, saturating concentrations of NADPH (50 µM) were added to the initial solutions of DHFR to observe the affinity variation of the complexes with respect to the DHFR.
# All the spectra were recorded in the range between 250 and 600 nm using an excitation wavelength characteristic of the Tryptophan, equal to 280 nm. For most of the experiments the temperature was kept constant at 25 °C; furthermore, to analyze the thermodynamic aspects of the reactions (via the van’t Hoff equation), quenching spectra of DHFR in presence of the gold(I) complexes were recorded at −4 and 10 °C as well.
# (§2) The fluorimetric data were analyzed using the binding isotherm (Equation (2)), where [Q] is the concentration of the added quenching ligand, F is the measured fluorescence, F0 is the starting fluorescence, Fc is the fluorescence of the fully complexed protein, Kd is the dissociation constant, and n is the Hill coefficient. Indeed, n is a phenomenological parameter, an interaction coefficient, such as when n = 1 the equation describes a complex formation with one site of interaction, when n = 2 binding occurs with a dimer, when 1 < n < 2 a cooperative interaction occurs. (2) F0−F/F−Fc=[Q]^n/(Kd+[Q])^n
# [2] = UV-visible spectroscopy stability test in Hepes/methanol solution; type: physicochemical; settings: 11.85 µM, Hepes/methanol 80:20, 30 °C, one hour, every 3 minutes
# Protocol: The preparation of the gold compounds was performed according to methods already published and was based on the substitution of the labile ligand from the gold precursor [AuCl(Me2S)], by mean of a more coordinative ligand, such as the PPh3 or its modified analogs, ^4L and ^2L. Mole ratio with an excess of the phosphane ligand was pursued with the aim to enhance the reaction yield for tris-phosphane compounds. The solids obtained by crystallization were characterized by elemental analysis, ^1H and ^31P NMR, IR, and ESI Mass spectrometry. The stability of the stock solutions upon dilution was checked by recording UV-visible spectra (see Supplementary Material, Figures S1 and S2). The reactants for the ester reaction and ^4L or ^2L ligands were bought from Aldrich and used without any purification. Methanol or methylene chloride solvents were degassed and dried over molecular sieves.
# UV-visible spectroscopy stability tests of compounds 4L3AuCl, 4L2AuCl, and 2L2AuCl on […]
# Acquisitions of the absorptions in the range of 200–700 nm of the tested solutions were led for an hour lapse every 3 minutes in 11.85 µM concentration of 4L3AuCL (figure S1), 4L2AuCl, and 2L2AuCl (figure S2) at 30 °C. The stability was tested in Hepes/methanol 80:20, which are the same conditions used for the inhibition tests.
# Figure S1. UV-visible spectra for 11.85 µM of 4L3AuCl in hepes/methanol
# (1 picture or pasted object on this page, not shown here)
# DHFR/NADPH = molecular target: T2, DHFR/NADPH (Escherichia coli, UniProt P0ABQ4); experiment: Fluorimetric binding assay on DHFR in presence of saturating NADPH; settings: 25 °C, saturating NADPH (50 µM); read-out: Kd ± s.d. (25 °C) in presence of saturating NADPH
# T2 construct: made in house
# Excerpt: After these preliminary emissive property characterizations, the fluorimetric studies were led in the presence of the enzyme DHFR and the cofactor NADPH [26]. […] Additionally, NADPH is fluorescent, with an absorption maximum at about 340 nm and an emission maximum at about 450 nm. […] Moreover, because NADPH has a maximum of absorption at 340 nm, significant energy transfer from the excited tryptophan of the enzyme to bound NADPH occurs; as a consequence, a new emission at 420–450 nm is then observed. Figure 8 reports the progressive quenching of the DHFR and NADPH emissions by stepwise adding of solution of ^4L3AuCl. Moreover, a slight shift of the typical emission at […] (λexc = 280 nm) is observed.
# as §1, §2
# DHFR from E. coli [3] = molecular target: T1, DHFR from E. coli; design: method as in PMID 25567238; settings: values obtained in a previous work, cited from earlier work
# DHFR from E. coli [4] = molecular target: T1, DHFR from E. coli; experiment: Inhibition of DHFR-catalysed reduction of H2F to H4F, spectrophotometric at 340 nm, Dixon plot; type: biochemical; settings: pH 7.3, 30 °C, saturating NADPH, H2F 1.5-10 µM, Hepes/methanol
# Protocol: The phosphane gold(I) compounds were used to prepare buffered stock solutions at pH = 7.3 at 30 °C for the inhibition tests of DHFR from E coli. In Table 1, the list of the gold(I) compounds used for the tests and the corresponding inhibition constants are reported.
# The inhibition action of the gold phosphane compounds was tested in regards to the reduction of H2F to H4F reaction, catalyzed by DHFR [2]. The inhibition tests were led by analyzing the reciprocal reaction rate upon the addition of Hepes/methanol solutions of gold compounds in different set of tests in the saturated concentration of NADPH. The tests were repeated with different amounts of dihydrofolate (DHF) (1.5 ÷ 10 µM).
# The standard deviations were calculated for a minimum of three determinations. (1) 1/ν=Km/VmaxKi[S]∗[I]+1/Vmax(1+Km/[S])
# The activity of the DHFR was followed by recording the absorbance with a Shimadzu UV-2450 (UV-Vis spectrophotometer). The enzyme assays were made in a quartz cuvette by using similar experimental conditions: DHFR 3-5 nM, NADPH 60–80 μM, and H2F 1.5, 4, and 10 μM. The procedure consisted in the preparation of the following mixtures: 800–971 µL of 50 mM Hepes buffer at pH = 7.3, 20 μL of NADPH, 10 µl of DHFR, and increasing quantities of gold(I) compounds stock solutions in order to achieve higher accuracy in the measurement of the inhibitory effect. After storing the mixture for 5 min at 30 °C, 4–33 µL of H2F was added. The decreasing absorbance at 340 nm, due to the oxidation of NADPH to NADP^+, was detected after adding the H2F, and expressed in U mL^−1 using the equation: U·mL^−1 = Δabs/Δt/11.8 × dilution factor, where 11.8 is the mMolar extinction coefficient when NADPH and H2F are simultaneously present in solution. The Ki values were calculated with the Dixon plot from the second plot obtained computing the slope values against the reciprocal of the H2F concentrations.
# [5] = 25 °C, without NADPH, Hepes/methanol, read-out: Kd ± s.d., T = 25 °C
# [6] = 10 °C, without NADPH, read-out: Kd ± s.d. (10 °C) (converted)
# [7] = −4 °C, without NADPH, read-out: Kd ± s.d. (−4 °C) (converted)
compound,measurement,setting,value
"O=C(O)c1ccccc1P(c1ccccc1)c1ccccc1.O=C(O)c1ccccc1P(c1ccccc1)c1ccccc1.[Cl][Au] [^2L2AuCl, (2COOHPh-Ph2P)2AuCl]",Kd,DHFR from E. coli [1]; [5],10.3 ± 0.65 µM
same,Stability of the solution (UV-visible spectra 200–700 nm),[2],no overall changes in solution over
same,Kd,DHFR/NADPH,4.73 ± 0.68 µM
same,Ki,DHFR from E. coli [3]; read-out: Ki,2 µM and 2.07 µM
"O=C(O)c1ccc(P(c2ccccc2)c2ccccc2)cc1.[Cl][Au] [^4LAuCl, (4COOHPh-Ph2P)AuCl]",Ki,DHFR from E. coli [3]; read-out: Ki,2.25 ± 0.62 µM
"[Cl][Au]([PH](c1ccccc1)(c1ccccc1)c1ccccc1)[PH](c1ccccc1)(c1ccccc1)c1ccccc1 [L2AuCl, (PPh3)2AuCl]",Ki,DHFR from E. coli [4],0.53 ± 0.03 µM
same,Kd,DHFR from E. coli [1]; [6],2.47 µM
same,Kd,DHFR from E. coli [1]; [5],5.99 ± 0.4 µM
same,Kd,"DHFR from E. coli [1]; conditions not stated in the conclusions, read-out: thermodynamic constant for the dissociation of the adduct [DHFR:(PPh3)2AuCl]",~2 µM
same,TΔS°,DHFR from E. coli [1],2.5 n. d. * kcal/mol
same,ΔG°,DHFR from E. coli [1],−7.37 n. d. * kcal/mol
same,ΔH°,DHFR from E. coli [1],−4.87 n. d.* kcal/mol
same,ΔS°,DHFR from E. coli [1],8.42 n. d. * cal/mol K
same,Kd,DHFR from E. coli [1]; [7],3.83 µM
same,Kd,DHFR/NADPH,2.22 ± 0.25 µM
"O=C(O)c1ccccc1P(c1ccccc1)c1ccccc1.O=C(O)c1ccccc1P(c1ccccc1)c1ccccc1.O=C(O)c1ccccc1P(c1ccccc1)c1ccccc1.[Cl][Au] [^2L3AuCl, [tris(2-benzoate-diphenylphosphanyl)-gold(I)chloride]]",Ki,DHFR from E. coli [4],21.3 ± 3.8 µM
same,n = Hill coefficient,DHFR from E. coli [1]; 10 °C,1.41 ± 0.048
same,Kd,DHFR from E. coli [1]; [6],7.12 µM
same,Kd,DHFR from E. coli [1]; [5],10.5 ± 1.07 µM
same,n = Hill coefficient,"DHFR from E. coli [1]; 25 °C, when not specified n = 1",1.23 ± 0.082
same,TΔS°,DHFR from E. coli [1],2.86 ± 0.1 kcal/mol
same,ΔG°,DHFR from E. coli [1],-6.8 ± 0.14 kcal/mol
same,ΔH°,DHFR from E. coli [1],-3.94 ± 0.1 kcal/mol
same,ΔS°,DHFR from E. coli [1],9.58 ± 0.08 cal/mol K
same,Kd,DHFR from E. coli [1]; [7],5.11 µM
same,Kd,DHFR/NADPH,7.32 ± 2.46 µM
"O=C(O)c1ccccc1P(c1ccccc1)c1ccccc1 [^2L, 2-(diphenylphosphine) benzoic acid, reference compound]",Ki,DHFR from E. coli [3],No inhibition *
"c1ccc(P(c2ccccc2)c2ccccc2)cc1 [L, PPh3, reference compound]",Ki,DHFR from E. coli [3]; read-out: Ki,6.16 ± 0.77 µM
"O=C(O)c1ccc(P(c2ccccc2)c2ccccc2)cc1.O=C(O)c1ccc(P(c2ccccc2)c2ccccc2)cc1.[Cl][Au] [^4L2AuCl, (4COOHPh-Ph2P)2AuCl]",Kd,DHFR from E. coli [1]; [6],3.52 µM
same,Kd,DHFR from E. coli [1]; [5],4.42 ± 0.56 µM
same,TΔS°,DHFR from E. coli [1],5.29 ± 0.2 kcal/mol
same,ΔG°,DHFR from E. coli [1],-7.31 ± 0.28 kcal/mol
same,ΔH°,DHFR from E. coli [1],-2.02 ± 0.2 kcal/mol
same,ΔS°,DHFR from E. coli [1],17.76 ± 0.1 cal/mol K
same,Kd,DHFR from E. coli [1]; [7],3.06 µM
same,Stability of the solution (UV-visible spectra 200–700 nm),[2],no overall changes in solution over
same,Kd,DHFR/NADPH,2.35 ± 0.61 µM
same,Ki,DHFR from E. coli [3]; read-out: Ki,27 µM and 27.8 µM
"O=C(O)c1ccccc1P(c1ccccc1)c1ccccc1.[Cl][Au] [^2LAuCl, (2COOHPh-Ph2P)AuCl]",Ki,DHFR from E. coli [3]; read-out: Ki,1.1 ± 0.3 µM
"O=C(O)c1ccccc1 [Benzoic acid, reference compound]",Kd,DHFR from E. coli [1]; [5],~4000 µM
COC(=O)c1ccc(P(c2ccccc2)c2ccccc2)cc1.COC(=O)c1ccc(P(c2ccccc2)c2ccccc2)cc1.COC(=O)c1ccc(P(c2ccccc2)c2ccccc2)cc1.[Cl][Au] [^4MeL3AuCl],Ki,DHFR from E. coli [4],12.7 ± 2.1 µM
same,Kd,DHFR from E. coli [1]; [6],7.63 µM
same,Kd,DHFR from E. coli [1]; [5],13.4 ± 2.24 µM
same,TΔS°,DHFR from E. coli [1],2.29 n. d. * kcal/mol
same,ΔG°,DHFR from E. coli [1],−6.64 n. d. * kcal/mol
same,ΔH°,DHFR from E. coli [1],−4.35 n. d. * kcal/mol
same,ΔS°,DHFR from E. coli [1],7.69 n. d. * cal/mol K
same,Kd,DHFR from E. coli [1]; [7],21.2 µM
same,Kd,DHFR/NADPH,4.55 ± 1.04 µM
"O=C(O)c1ccc(P(c2ccccc2)c2ccccc2)cc1 [^4L, 4-(diphenylphosphino)benzoic acid, reference compound]",Kd,DHFR from E. coli [1]; [5],59.6 ± 5.7 µM
same,Ki,DHFR from E. coli [3],No inhibition *
"O=C(O)c1ccc(P(c2ccccc2)c2ccccc2)cc1.O=C(O)c1ccc(P(c2ccccc2)c2ccccc2)cc1.O=C(O)c1ccc(P(c2ccccc2)c2ccccc2)cc1.O=S(=O)([O][Au])C(F)(F)F [^4L3AuTfl, [tris(4-benzoate-diphenylphosphanyl)-gold(I)triflate]]",Ki,DHFR from E. coli [4],6.33 ± 0.7 µM
same,Kd,DHFR from E. coli [1]; [5],21.4 ± 3.85 µM
same,TΔS°,DHFR from E. coli [1],1.17 ± 0.9 kcal/mol
same,ΔH°,DHFR from E. coli [1],-5.32 ± 3.2 kcal/mol
same,ΔS°,DHFR from E. coli [1],3.92 ± 8.8 cal/mol K
same,Kd,DHFR from E. coli [1]; [7],8.08 µM
"[Cl][Au].c1ccc(P(c2ccccc2)c2ccccc2)cc1 [LAuCl, PPh3AuCl]",Ki,DHFR from E. coli [3]; read-out: Ki,1.21 ± 0.2 µM
